The source of these data is publication PMC6099557, “Cholinesterase Inhibition Activity, Alkaloid Profiling and Molecular Docking of Chilean Rhodophiala (Amaryllidaceae)” (Molecules : A Journal of Synthetic Chemistry and Natural …, 2018).

Structures are written as SMILES. Values after ≈ are worked out from the molar mass of the structure shown. Where two headings read alike, the source gives them in different places.

For test [1], the system named is human serum BuChE. Conditions: tested 0.5–500 μg/mL, cited from earlier work.
For test [2], the target named is T1, BuChE from equine serum (Equus caballus, UniProt P81908).
T1 construct: BuChE from equine serum (Merck, Darmstadt, Germany); purchased Merck, Darmstadt, Germany; host or cells: equine serum
The experiment in a line: biochemical. As to the method:
(§1) Cholinesterase inhibitory activities were determined according to [35] with some modifications. Stock solutions with 518U of AchE from Electrophorus electricus (Merck, Darmstadt, Germany) and BuChE from equine serum (Merck, Darmstadt, Germany), respectively, were prepared and kept at −20 °C. Acetylthiocholine iodide (ATCI), S-butyrylthiocholine iodide (BTCI) and 5,5′-dithiobis (2-nitrobenzoic acid) (DTNB) were obtained from Merck (Darmstadt, Germany). Fifty microliters of AChE or BuChE (both enzymes used at 6.24 U) in phosphate buffer (8 mM K2HPO4, 2.3 mM NaH2PO4, 0.15 NaCl, pH 7.5) and 50 μL of the sample dissolved in the same buffer were added to the wells. The plates were incubated for 30 min at room temperature. Then, 100 μL of the substrate solution (0.1 M Na2HPO4, […], and 0.6 mM ATCI or 0.24 mM BTCI in Millipore water, pH 7.5) was added. After 10 min, the absorbance was read at 405 nm in a Labsystem microplate reader (Thermo Fischer, Waltham, MA, USA). Enzyme activity was calculated as percent compared to a control using buffer without any inhibitor. […] In a first step, samples were assessed at 10, 100 and 200 μg/mL towards both enzymes. […] The cholinesterase inhibitory data were analyzed with the software Microsoft Office Excel 2010 (Microsoft, Redmond, WA, USA).

In test [3] the test system is human erythrocye AChE. Conditions: human erythrocyte AChE, tested 0.5–500 μg/mL, cited from earlier work.
The target in test [4] is T2, AchE from Electrophorus electricus (Electrophorus electricus, UniProt O42275).
T2 construct: purchased Merck, Darmstadt, Germany
The experiment in a line: biochemical. Conditions: AChE inhibitory activity IC50, single alkaloids and reference galanthamine; electric eel AChE. As to the method:
as §1

The subject of test [5] is S. aureus ATCC 6538. Conditions: cited from earlier work.
Test [6] relates to panel of eight human cancer cell lines. Conditions: cited from earlier work.
Test [7] concerns P. aeruginosa ATCC 27853. Conditions: cited from earlier work.
Test [8] concerns E. coli ATCC 24922. Conditions: cited from earlier work.
For test [9], the system named is multi-drug resistant breast cell line NCLADR. Conditions: montanine at 2.5 μg/mL; cited from earlier work.
The mark [10] stands for this setting: BuChE inhibitory activity IC50, single alkaloids and reference galanthamine.
[11] abbreviates: single alkaloids and reference galanthamine, read-out: BuChE inhibitory activity IC50 (converted).

T1 sequence (P81908 whole entry): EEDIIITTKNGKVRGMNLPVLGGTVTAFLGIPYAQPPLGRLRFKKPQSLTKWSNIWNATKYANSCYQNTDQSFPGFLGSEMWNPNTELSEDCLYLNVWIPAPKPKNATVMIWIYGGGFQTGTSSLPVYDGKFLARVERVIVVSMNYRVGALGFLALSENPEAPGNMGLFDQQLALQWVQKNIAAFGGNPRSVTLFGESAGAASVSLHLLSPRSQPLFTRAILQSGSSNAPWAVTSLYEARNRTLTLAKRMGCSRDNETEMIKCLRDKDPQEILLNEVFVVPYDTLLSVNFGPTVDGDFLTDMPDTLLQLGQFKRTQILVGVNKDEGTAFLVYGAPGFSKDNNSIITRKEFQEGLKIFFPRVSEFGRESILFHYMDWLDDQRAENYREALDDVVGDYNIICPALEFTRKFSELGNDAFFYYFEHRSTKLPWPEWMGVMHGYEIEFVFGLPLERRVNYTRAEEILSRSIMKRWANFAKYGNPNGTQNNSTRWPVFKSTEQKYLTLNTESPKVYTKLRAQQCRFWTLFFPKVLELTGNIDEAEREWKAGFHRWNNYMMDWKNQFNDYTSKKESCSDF
T2 sequence (O42275 24-633): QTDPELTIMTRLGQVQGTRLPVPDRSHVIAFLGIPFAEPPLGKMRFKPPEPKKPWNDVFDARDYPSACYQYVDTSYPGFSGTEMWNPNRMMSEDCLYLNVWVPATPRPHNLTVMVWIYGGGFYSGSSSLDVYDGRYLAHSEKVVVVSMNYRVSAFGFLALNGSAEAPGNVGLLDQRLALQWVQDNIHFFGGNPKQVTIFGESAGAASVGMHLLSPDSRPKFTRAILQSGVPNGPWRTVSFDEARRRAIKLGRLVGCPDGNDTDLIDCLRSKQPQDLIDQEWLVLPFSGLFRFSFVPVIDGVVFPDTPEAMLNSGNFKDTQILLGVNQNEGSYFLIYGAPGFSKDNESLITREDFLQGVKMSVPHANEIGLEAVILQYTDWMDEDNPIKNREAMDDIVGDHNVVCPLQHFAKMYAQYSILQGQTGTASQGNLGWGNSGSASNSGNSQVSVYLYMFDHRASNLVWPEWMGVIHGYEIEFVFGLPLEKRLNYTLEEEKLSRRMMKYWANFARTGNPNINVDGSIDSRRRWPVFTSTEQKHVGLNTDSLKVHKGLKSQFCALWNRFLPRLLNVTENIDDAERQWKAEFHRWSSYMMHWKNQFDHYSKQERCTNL

A word on the IC50: it is the midpoint of a concentration-inhibition curve. Regarding `O[C@H]1[C@H]2c3cc4c(cc3CN3CCC(=C[C@@H]1O)[C@H]23)OCO4` [lycorine (9), lycorine], in test [1], the “Activity on human BuChE (in words)” value is given as “not active”. In test [2] (setting [10]), the IC50 was over 696 µM. In test [3], the “Activity on human AChE (in words)” value is on record as “not active”.

Turning to `OC1C=CC23c4cc5c(cc4CN(CC2O)C3C1)OCO5` (centres unmarked) [11-hydroxyvittatine (20a), 11-hydroxyvittatine], in test [1] (listed as 11-hydroxyvitattine), the “Activity on human BuChE (in words)” value is “not active”. Also, the IC50 in test [2] (setting [11]) was over 696 µM. Further, in test [3] (listed as 11-hydroxyvitattine), the “Activity on human AChE (in words)” value is on record as “not active”.

For the compound `COc1cc2c(cc1O)CN1CC[C@@]23C=C[C@@H](O)C[C@H]13` [8-O-demethylmaritidine (16), 8-O-demethylmaritidine], in test [1], the “Activity on human BuChE (in words)” value is “inactive”. In addition, the IC50 in [2] (setting [10]) was 468 µM; in test [4], 414 µM. Besides, in test [3], the “Activity on human AChE (in words)” value is “presented activity”.

Take `COc1cc2c(cc1O)C13CCC(O)CC1N(CC3)C2` (centres unmarked) [deacetylcantabricine (17), deacetylcantabricine]: the IC50 in test [2] (setting [10]) and in [4] was over 726 µM each time.

Turning to `OC1C=CC23c4cc5c(cc4CN(CC2O)C3C1)OCO5` (centres unmarked) [hamayne (20b), hamayne], the “Activity on human BuChE (in words)” value in test [1] is “inactive”. The IC50 in [2] (setting [11]) is 168 µM. The “Activity on human AChE (in words)” value in test [3] is given as “presented activity”.

With `COC1C=CC23c4cc5c(cc4CN(CC2O)C3C1)OCO5` (centres unmarked) [haemanthamine (18a), haemanthamine], in [1], the “Activity on human BuChE (in words)” value is “not active”. In test [2] (setting [10]), the IC50 is over 664 µM. In [3], the “Activity on human AChE (in words)” value is recorded as “not active”.

Usually MIC stands for the lowest concentration that inhibits growth of the organism. In the case of `CO[C@H]1C=C2[C@H]3C[N@@](Cc4cc5c(cc43)OCO5)[C@H]2C[C@@H]1O` [montanine], the MIC in [5] is 5 µg/mL (≈ 16.6 µM); in test [7], 20 µg/mL (≈ 66.4 µM); in [8], 5 µg/mL (≈ 16.6 µM). In test [6], the “Activity towards a panel of eight human cancer cell lines” value is given as “showed activity”. In test [9], the “Activity on NCLADR compared with doxorubicine” value was “more active than doxorubicine”.
